For one assay, the target named is E. coli DNA gyrase (Escherichia coli, UniProt P0AES4+P0AES6). Description: in vitro dsDNA break. It is filed as biochemical. The conditions noted are these: 1 tested at ≤3.3 mM.
Assay [1] relates to E. coli and S. aureus DNA gyrase. The conditions noted are these: in vitro; cited from earlier work.

Molecules are shown by their SMILES.

Sequence of E. coli DNA gyrase (P0AES4 whole entry, one chain of several): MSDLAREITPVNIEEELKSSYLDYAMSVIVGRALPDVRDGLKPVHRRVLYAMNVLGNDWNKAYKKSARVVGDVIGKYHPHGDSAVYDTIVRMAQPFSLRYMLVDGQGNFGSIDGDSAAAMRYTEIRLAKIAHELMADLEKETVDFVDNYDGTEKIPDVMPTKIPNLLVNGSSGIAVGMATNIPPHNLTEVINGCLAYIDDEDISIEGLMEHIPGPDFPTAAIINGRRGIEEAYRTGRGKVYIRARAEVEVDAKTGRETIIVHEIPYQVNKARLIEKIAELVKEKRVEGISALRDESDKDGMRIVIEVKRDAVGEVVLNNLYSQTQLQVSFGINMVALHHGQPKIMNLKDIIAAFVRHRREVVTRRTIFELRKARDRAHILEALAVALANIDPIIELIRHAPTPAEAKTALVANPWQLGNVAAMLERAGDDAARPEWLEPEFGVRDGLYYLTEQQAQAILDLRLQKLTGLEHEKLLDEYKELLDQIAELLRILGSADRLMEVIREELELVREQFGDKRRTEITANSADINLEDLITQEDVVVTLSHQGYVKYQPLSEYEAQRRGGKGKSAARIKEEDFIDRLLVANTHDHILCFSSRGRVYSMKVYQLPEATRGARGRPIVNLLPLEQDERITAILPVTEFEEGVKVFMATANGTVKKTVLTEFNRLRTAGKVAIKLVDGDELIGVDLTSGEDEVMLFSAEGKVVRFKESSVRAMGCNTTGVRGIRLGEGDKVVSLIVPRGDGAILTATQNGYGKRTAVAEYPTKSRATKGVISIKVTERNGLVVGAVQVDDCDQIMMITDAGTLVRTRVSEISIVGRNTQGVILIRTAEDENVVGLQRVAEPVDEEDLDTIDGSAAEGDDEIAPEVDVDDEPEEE

Take `O=C(O)c1cn(C2CC2)c2cc(N3CCNCC3)c(F)cc2c1=O` [ciprofloxacin]: the “generation of dsDNA breaks / linearized DNA” value on E. coli DNA gyrase is “production of dsDNA breaks”.

As to `COc1ccc2ncc(F)c([C@@H](O)CC[C@@H]3CCN(CCSc4cccs4)C[C@@H]3C(=O)O)c2c1` [NXL101], the “release of dsDNA ends” value in assay [1] is recorded as “does not release dsDNA ends”.

Values taken from PMC3088120 (ACS medicinal chemistry letters, 2011).
